Tests used:
NPY Y2 receptor [1] = molecular target: T1, NPY Y2 receptor (Homo sapiens, UniProt P49146); experiment: Neuropeptide Y2 pKB assay (FLIPR, KAN-Ts cells stably expressing chimeric G proteins); type: cell-based; conditions: apparent pKB, modified Cheng-Prusoff correction
T1 sequence (P49146 1-381): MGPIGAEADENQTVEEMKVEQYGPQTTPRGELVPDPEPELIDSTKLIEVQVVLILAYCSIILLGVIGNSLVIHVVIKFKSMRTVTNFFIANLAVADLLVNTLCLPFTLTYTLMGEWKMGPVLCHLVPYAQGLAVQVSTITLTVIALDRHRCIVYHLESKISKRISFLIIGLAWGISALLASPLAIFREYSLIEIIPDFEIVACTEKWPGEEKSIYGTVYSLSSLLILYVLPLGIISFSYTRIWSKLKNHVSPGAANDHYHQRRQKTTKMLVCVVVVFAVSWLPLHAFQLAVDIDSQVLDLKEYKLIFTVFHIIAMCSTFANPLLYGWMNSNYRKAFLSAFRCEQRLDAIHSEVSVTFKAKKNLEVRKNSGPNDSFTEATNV
Experimental: The assay was performed using the fluorimetric imaging plate reader (FLIPR) format as described in Dautzenberg, F. M., Biochemical Pharmacology 2005, 69, 1493.
KAN-Ts cells stably expressing chimeric G proteins were seeded at a density of 100,000 cells into poly-d-lysine coated 384-well blackwall, clear-bottom microtiter plates (Corning, N.Y.). One day later, the medium was removed and 50 μl loading medium DMEM high glucose, without serum, supplemented with 10 mM HEPES-acid, 0.1% BSA, 5 mM probenecid and 2 μM Fluo-3AM was added. Cells were loaded for 1 h at 37° C., washed twice with 50 μl assay buffer (5 mM HEPES-acid, 140 mM NaCl, 1 mM MgCl2, 5 mM KCl, 10 mM glucose) and then 30 μl assay buffer was added. Cells were further pre-incubated at room temperature before adding agonists or agonists plus antagonists in 20 μl assay buffer and then measured on a T-channel fluorometric imaging plate reader (FLIPR, Molecular Devices, Sunnyvale, Calif.). Antagonistic potency values were converted to apparent pKB values using a modified Cheng-Prusoff correction. Apparent pKB was calculated as pKB=−log IC50/1+[conc agonist/EC50].

NPY Y2 receptor [2] = molecular target: T1, NPY Y2 receptor; experiment: Neuropeptide Y2 radioligand binding assay ([125I]PYY, KAN-Ts membranes); parameters: endogenous in cells; host or cells: KAN-Ts cells (membrane preparation); conditions: for IC50: KAN-Ts membranes endogenously expressing Y2, [125I]PYY (80 pM), 1 h at rt; for Ki: apparent Ki=IC50/(1+C/KD)
How it was run: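 Membranes from KAN-Ts cells with endogenous Y2 receptors, incubated with 80 pM [125I]PYY ± compound for 1 h at rt in HEPES/NaCl/CaCl2/MgSO4 buffer, then filtered and counted. Nonspecific binding defined with […]. IC50 from sigmoidal fit; Ki = IC50/(1+C/KD).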

Row | Compound | Kb (NPY Y2 receptor [1]) [nM] | IC50 (NPY Y2 receptor [2]) [nM] | Ki (NPY Y2 receptor [2]) [nM]
1 | CCC(CC)C(=O)Nc1ccc(N2CCN(C(c3ccccc3)c3ncco3)CC2)c(C)c1 (stereo not drawn) [Compound 85, 2-Ethyl-N-{3-methyl-4-[4-(oxazol-2-yl-phenyl-methyl)-piperazin-1-yl]-phenyl}-butyramide] | 126 | 75 | 
2 | CCc1nc(C(c2ccccc2)N2CCN(c3ccc(NC(=O)C(CC)CC)cc3F)CC2)no1 (stereo not drawn) [Compound 236, 2-Ethyl-N-(4-{4-[(5-ethyl-[1,2,4]-oxadiazol-3-yl)-phenyl-methyl]-piperazin-1-yl}-3-fluoro-phenyl)-butyramide] | 15.8 | 23 | 
3 | CCC(CC)C(=O)Nc1ccc(N2CCN(C(c3ccccc3)c3ncco3)CC2)c(Br)c1 (stereo not drawn) [Compound 237, N-{3-Bromo-4-[4-(oxazol-2-yl-phenyl-methyl)-piperazin-1-yl]-phenyl}-2-ethyl-butyramide] | 63.1 | 16 | 
4 | CCC(CC)C(=O)Nc1ccc(N2CCN(C(c3ccccc3)c3nccs3)CC2)c(F)c1 (stereo not drawn) [Compound 39, 2-Ethyl-N-{3-fluoro-4-[4-(phenyl-thiazol-2-yl-methyl)-piperazin-1-yl]-phenyl}-butyramide] | 63.1 | 28 | 
5 | CCC(CC)C(=O)Nc1ccc(N2CCN(C(c3ccccc3)c3cccnc3)CC2)c(C#N)c1 (stereo not drawn) [Compound 317, N-{3-Cyano-4-[4-(phenyl-pyridin-3-yl-methyl)-piperazin-1-yl]-phenyl}-2-ethyl-butyramide] | 31.6 |  | 4.3
6 | CCC(CC)C(=O)Nc1ccc(N2CCN(C(c3ccccc3)c3cccnc3)CC2)c(F)c1 (stereo not drawn) [Compound 24, 2-Ethyl-N-{3-fluoro-4-[4-(phenyl-pyridin-3-yl-methyl)-piperazin-1-yl]-phenyl}-butyramide] | 79.4 | 40 | 
7 | CCC(CC)C(=O)Nc1ccc(N2CCN(C(c3ccc(F)cc3)c3ncco3)CC2)c(C#N)c1 (stereo not drawn) [Compound 139, N-(3-Cyano-4-{4-[(4-fluoro-phenyl)-oxazol-2-yl-methyl]-piperazin-1-yl}-phenyl)-2-ethyl-butyramide] | 25.1 | 21 | 
8 | CCC(CC)C(=O)Nc1ccc(N2CCN(C(c3ccccc3)c3nc(C)no3)CC2)c(F)c1 (stereo not drawn) [Compound 2, 2-Ethyl-N-(3-fluoro-4-{4-[(3-methyl-[1,2,4]-oxadiazol-5-yl)-phenyl-methyl]-piperazin-1-yl}phenyl)-butyramide] | 39.8 | 27 | 
9 | CCC(CC)C(=O)Nc1ccc(N2CCN(C(c3ccccc3)c3ccccn3)CC2)c(F)c1 (stereo not drawn) [Compound 33, 2-Ethyl-N-{3-fluoro-4-[4-(phenyl-pyridin-2-yl-methyl)-piperazin-1-yl]-phenyl}-butyramide] | 20 | 18 | 
10 | CCc1noc(C(c2ccccc2)N2CCN(c3ccc(NC(=O)C(CC)CC)cc3F)CC2)n1 (stereo not drawn) [Compound 1, 2-Ethyl-N-(4-{4-[(3-ethyl-[1,2,4]-oxadiazol-5-yl)-phenyl-methyl]-piperazin-1-yl}-3-fluoro-phenyl)-butyramide] | 35.5 | 27 | 
11 | Cc1noc(C)c1C(=O)Nc1ccc(N2CCN(C(c3ccccc3)c3ccccc3)CC2)c(C#N)c1 [Compound 302, N-{3-Cyano-4-[4-(diphenylmethyl)piperazin-1-yl]phenyl}-3,5-dimethylisoxazole-4-carboxamide] | 501 |  | 14
12 | CCC(CC)C(=O)Nc1ccc(N2CCN(C(c3ccccc3)c3nnc(C(CC)CC)o3)CC2)c(F)c1 (stereo not drawn) [Compound 163, 2-Ethyl-N-[4-(4-{[5-(1-ethyl-propyl)-[1,3,4]oxadiazol-2-yl]-phenyl-methyl}-piperazin-1-yl)-3-fluoro-phenyl]-butyramide] | 100 | 20 | 
13 | CCC(CC)C(=O)Nc1ccc(N2CCN(C(c3ccccc3)c3ncco3)CC2)c(F)c1 (single isomer, unassigned) [Compound 60, 2-Ethyl-N-{3-fluoro-4-[4-(oxazol-2-yl-phenyl-methyl)-piperazin-1-yl]-phenyl}-butyramide] | 63.1 | 34 | 
14 | Cc1noc(C)c1C(=O)Nc1ccc(N2CCN(C(c3ccccc3)c3ncco3)CC2)c(F)c1 (stereo not drawn) [Compound 113, 3,5-Dimethyl-isoxazole-4-carboxylic acid {3-fluoro-4-[4-(oxazol-2-yl-phenyl-methyl)-piperazin-1-yl]-phenyl}-amide] | 200 | 140 | 
15 | CCC(CC)C(=O)Nc1ccc(N2CCN(C(c3ccccc3)c3noc(C(C)C)n3)CC2)c(F)c1 (stereo not drawn) [Compound 82, 2-Ethyl-N-(3-fluoro-4-{4-[(5-isopropyl-[1,2,4]-oxadiazol-3-yl)-phenyl-methyl]-piperazin-1-yl}-phenyl)-butyramide] | 50.1 | 22 | 
16 | CCc1nnc(C(c2ccccc2)N2CCN(c3ccc(NC(=O)C(CC)CC)cc3F)CC2)o1 (stereo not drawn) [Compound 153, 2-Ethyl-N-(4-{4-[(5-ethyl-[1,3,4]-oxadiazol-2-yl)-phenyl-methyl]-piperazin-1-yl}-3-fluoro-phenyl)-butyramide] | 39.8 | 39 | 
17 | CCC(CC)C(=O)Nc1ccc(N2CCN(C(c3ccccc3)c3nc4ccccc4s3)CC2)c(C#N)c1 (stereo not drawn) [Compound 169, N-{4-[4-(Benzothiazol-2-yl-phenyl-methyl)-piperazin-1-yl]-3-cyano-phenyl}-2-ethyl-butyramide] | 50.1 | 39 | 
18 | O=C(Nc1ccc(N2CCN(C(c3ccccc3)c3ncco3)CC2)c(F)c1)C1CCCC1 (stereo not drawn) [Compound 54, Cyclopentanecarboxylic acid {3-fluoro-4-[4-(oxazol-2-yl-phenyl-methyl)-piperazin-1-yl]-phenyl}amide] | 10000 | 95 | 
19 | CCC(CC)C(=O)Nc1ccc(N2CCN(C(c3ccccc3)c3ncco3)CC2)c(F)c1 (stereo not drawn) [Compound 20, 2-Ethyl-N-{3-fluoro-4-[4-(oxazol-2-yl-phenyl-methyl)-piperazin-1-yl]-phenyl}-butyramide] | 50.1 | 40 | 
20 | CCC(CC)C(=O)Nc1ccc(N2CCN(C(c3ccc(OC)cc3)c3ncco3)CC2)c(C#N)c1 (stereo not drawn) [Compound 141, N-(3-Cyano-4-{4-[(4-methoxy-phenyl)-oxazol-2-yl-methyl]-piperazin-1-yl}-phenyl)-2-ethyl-butyramide] | 50.1 | 29 | 
21 | CCC(CC)C(=O)Nc1ccc(N2CCN(C(c3ccccc3)c3ccccc3)CC2)c(C#N)c1 [Compound 304, N-[4-(4-Benzhydryl-piperazin-1-yl)-3-cyano-phenyl]-2-ethyl-butyramide] | 501 |  | 4.7
22 | CC(CC(F)(F)F)C(=O)Nc1ccc(N2CCN(C(c3ccccc3)c3ncco3)CC2)c(C#N)c1 (stereo not drawn) [Compound 110, N-{3-Cyano-4-[4-(oxazol-2-yl-phenyl-methyl)-piperazin-1-yl]-phenyl}-4,4,4-trifluoro-2-methyl-butyramide] | 100 | 29 | 
23 | CCC(CC)C(=O)Nc1ccc(N2CCN(C(c3ccccc3)c3ncccn3)CC2)c(F)c1 (stereo not drawn) [Compound 40, 2-Ethyl-N-{3-fluoro-4-[4-(phenyl-pyrimidin-2-yl-methyl)-piperazin-1-yl]-phenyl}-butyramide] | 100 | 52 | 
24 | CCC(CC)C(=O)Nc1ccc(N2CCN(C(c3ccccc3)c3ccccc3C)CC2)c(C#N)c1 (stereo not drawn) [Compound 305, N-{3-Cyano-4-[4-(phenyl-o-tolyl-methyl)-piperazin-1-yl]-phenyl}-2-ethyl-butyramide] | 316 |  | 36
25 | CCC(CC)C(=O)Nc1ccc(N2CCN(C(c3ccccc3)c3noc(C)n3)CC2)c(F)c1 (stereo not drawn) [Compound 239, 2-Ethyl-N-(3-fluoro-4-{4-[(5-methyl-[1,2,4]-oxadiazol-3-yl)-phenyl-methyl]-piperazin-1-yl}-phenyl)-butyramide] | 12.6 | 13 | 
26 | CCC(CC)C(=O)Nc1ccc(N2CCN(C(c3cccc(F)c3)c3ncco3)CC2)c(F)c1 (stereo not drawn) [Compound 132, 2-Ethyl-N-(3-fluoro-4-{4-[(3-fluoro-phenyl)-oxazol-2-yl-methyl]-piperazin-1-yl}-phenyl)-butyramide] | 63.1 | 45 | 
27 | CCC(CC)C(=O)Nc1cc(F)c(N2CCN(C(c3ccccc3)c3ncco3)CC2)c(F)c1 (stereo not drawn) [Compound 243, N-{3,5-Difluoro-4-[4-(oxazol-2-yl-phenyl-methyl)-piperazin-1-yl]-phenyl}-2-ethyl-butyramide] | 126 | 50 | 
